Experimental data reported in publication PMC13249469, “High-throughput ligand diversification to discover chemical inducers of proximity” (Nature Chemical Biology, 2026).

Target: T1, CRBN (Cereblon) (Homo sapiens, UniProt Q96SW2)
T1 construct: CRBN–DDB1; with DDB1
Assay: competitive FP displacement of BODIPY-labelled IMiD probe, without ENL YEATS
Format: binding

IC50: 155 nM
SMILES: O=C(COc1cccc2c1C(=O)N(C1CCC(=O)NC1=O)C2=O)NCCOCCOCCNS(=O)(=O)Nc1cccc(-c2cn3cc(C(=O)NC4CCC4)ccc3n2)c1 (stereo not shown) [SR-1114]
